Where two headings read alike, the source gives them in different places.
Legend:
[1] = system: Escherichia coli ATCC 25922; assay: Antimicrobial activity, agar well diffusion; assay type: cell-based; settings: Dose 0.6 mg/disk, dwell = 6 mm
Text: (§1) Twenty tested microorganisms including six Gram-positive bacteria (Bacillus subtilis ATCC 6633, Bacillus amyloliquefaciens 4BCL-YT, Staphylococcus aureus ATCC 25923, Listeria monocytogenes NBIMCC 8632, Enterococcus faecalis ATCC 19433), six Gram-negative bacteria (Salmonella enteritidis ATCC 13076, Klebsiella sp.—clinical isolate, Escherichia coli ATCC 25922, Proteus vulgaris ATCC 6380, Pseudomonas aeruginosa ATCC 9027), two yeasts (Candida albicans NBIMCC 74, Saccharomyces cerevisiae ATCC 9763), and six fungi (Aspergillus niger ATCC 1015, Aspergillus flavus, Penicillium sp., Rhizopus sp., Mucor sp.—plant isolates, Fusarium moniliforme ATCC 38932) from the collection of the Department of Microbiology at the University of Food Technologies—Plovdiv, Bulgaria, were selected for the antimicrobial activity test. The antimicrobial activity of the samples was determined by the agar well diffusion method. The tested bacteria B. subtilis and B. amyloliquefaciens were cultured on LBG agar at 30 °C. The test bacteria S. aureus, L. monocytogenes, E. faecalis, S. enteritidis, Klebsiella sp., E. coli, P. vulgaris, and P. aeruginosa were cultured on LBG agar at 37 °C for 24 h. The yeast C. albicans was cultured on MEA at 37 °C, while S. cerevisiae was cultured on MEA at 30 °C for 24 h. The fungi A. niger, A. flavus, Penicillium sp., Rhizopus sp., Mucor sp., and F. moniliforme were grown on MEA at 30 °C for 7 days or until sporulation. The inocula of the tested bacteria/yeasts was prepared by homogenization of a small amount of biomass in 5 mL of sterile 0.5% NaCl. The inocula of tested fungi were prepared by the addition of 5 mL of sterile 0.5% NaCl into the tubes. After stirring by vortex V-1 plus (Biosan), they were filtered and replaced in other tubes before use. The number of viable cells and fungal spores was determined using a bacterial counting chamber Thoma (Poly-Optik, GmbH, Bad Blankenburg, Germany). Their final concentrations were adjusted to 10^8 cfu/mL for bacterial/yeast cells and 10^5 cfu/mL for fungal spores and then inoculated in preliminarily melted and tempered at 45–48 °C LBG/MEA agar media. Next, the inoculated media were transferred in a quantity of 18 mL in sterile Petri plates (d = 90 mm) (Gosselin™, Hazebrouck, France) and allowed to harden. Then, six wells (d = 6 mm) per plate were cut, and triplicates of 60 μL of each extract were pipetted into the agar wells. The Petri plates were incubated in identical conditions. The antimicrobial activity was determined by measuring the diameter of the inhibition zones around the wells on the 24th and 48th h of incubation. Tested microorganisms with inhibition zones of 18 mm or more were considered sensitive; moderately sensitive were those in which the zones were from 12 to 18 mm; resistant were those in which the inhibition zones were up to 12 mm or completely missing.

[2] = system: Aspergillus niger ATCC 1015; assay: Antimicrobial activity, agar well diffusion; assay type: cell-based; settings: Dose 0.6 mg/disk, dwell = 6 mm
Text: as §1

[3] = system: Proteus vulgaris ATCC 6380; assay: Antimicrobial activity, agar well diffusion; assay type: cell-based; settings: Dose 0.6 mg/disk, dwell = 6 mm
Text: as §1

[4] = system: Micrococcus luteus 2YC-YT; assay: Antimicrobial activity, agar well diffusion; assay type: cell-based; settings: Dose 0.6 mg/disk, dwell = 6 mm
Text: as §1

[5] = system: Listeria monocytogenes NBIMCC 8632; assay: Antimicrobial activity, agar well diffusion; assay type: cell-based; settings: Dose 0.6 mg/disk, dwell = 6 mm
Text: as §1

[6] = system: Salmonella enteritidis ATCC 13076; assay: Antimicrobial activity, agar well diffusion; assay type: cell-based; settings: Dose 0.6 mg/disk, dwell = 6 mm
Text: as §1

Aspergillus flavus = assay: Antimicrobial activity, agar well diffusion; assay type: cell-based; settings: Dose 0.6 mg/disk, dwell = 6 mm
Text: as §1

[7] = system: Pseudomonas aeruginosa ATCC 9027; assay: Antimicrobial activity, agar well diffusion; assay type: cell-based; settings: Dose 0.6 mg/disk, dwell = 6 mm
Text: as §1

Penicillium chrysogenum = assay: Antimicrobial activity, agar well diffusion; assay type: cell-based; settings: Dose 0.6 mg/disk, dwell = 6 mm
Text: as §1

Rhizopus sp. = assay: Antimicrobial activity, agar well diffusion; assay type: cell-based; settings: Dose 0.6 mg/disk, dwell = 6 mm
Text: as §1

[8] = system: Bacillus subtilis ATCC 6633; assay: Antimicrobial activity, agar well diffusion; assay type: cell-based; settings: Dose 0.6 mg/disk, dwell = 6 mm
Text: as §1

[9] = system: Salmonella typhimurium NBIMCC 1672; assay: Antimicrobial activity, agar well diffusion; assay type: cell-based; settings: Dose 0.6 mg/disk, dwell = 6 mm
Text: as §1

MTT cell viability assay [10] = assay type: cell-based; settings: human, 72 h exposure, ± SD, read-out: In vitro cytotoxicity IC50
Protocol: (§2) To evaluate the biocompatibility of the hybrid compounds, their in vitro antiproliferative activity was assessed in a panel of human malignant cell lines of different origin (K-562 and LAMA-84 suspension-growing myeloid leukemia cells, positive for the Philadelphia chromosome, and the urothelial bladder carcinoma cell line T-24 of adherent type). Non-malignant murine fibroblast cells (CCL-1) were also used as a screening platform. All cell lines were purchased from the German Collection of Microorganisms and Cell Cultures (DSMZ GmbH, Braunschweig, Germany). Cell cultures were cultivated in a growth medium RPMI 1640 supplemented with 10% fetal bovine serum (FBS), and 5% L-glutamine and were incubated under standard conditions of 37 °C and 5% humidified CO2 atmosphere. The effects of the newly synthesized anthranilic derivatives on cell viability were measured using a validated colorimetric assay for evaluating cell viability, known as the Mosmann MTT method. Exponential-phased cells were harvested and seeded (100 μL/well) in 96-well plates at the appropriate density (3 × 10^5 for the suspension cultures LAMA-84 and K-562 and 1.5 × 10^5 for the adherent T-24 and CCL-1 cells). Following a 24 h incubation, cells were treated with various concentrations of the experimental compounds in the concentration range of 200–12.5 μM. After an exposure time of 72 h, filter-sterilized MTT substrate solution (5 mg/mL in PBS) was added to each well of the culture plate. A further 2–4 h incubation allowed for the formation of purple insoluble formazan crystals. The latter was dissolved in isopropyl alcohol solution containing 5% formic acid prior to absorbance measurement at 550 nm. Collected absorbance values were blanked against MTT and isopropanol solution and normalized to the mean value of untreated control (100% cell viability).

[11] = system: Enterococcus faecalis ATCC 29212; assay: Antimicrobial activity, agar well diffusion; assay type: cell-based; settings: Dose 0.6 mg/disk, dwell = 6 mm
MTT cell viability assay [12] = assay type: cell-based, murine; settings: mouse, CCL-1 normal fibroblast cells (adherent); CCL-1, MTT, 72 h exposure, ± SD; read-out: In vitro cytotoxicity IC50
Protocol: as §2

[13] = K-562 myeloid leukemia cells (suspension), K-562, MTT
[14] = LAMA-84 myeloid leukemia cells (suspension), LAMA-84, MTT
[15] = T-24 urothelial bladder carcinoma cells (adherent), T-24, MTT

Compound: O=C(Nc1ccccc1C(=O)NCCc1cccc(Cl)c1)c1ccccc1 [Compound 4b, 2-benzamido-N-(3-chlorophenethyl)benzamide]
- Inhibition Zones [1]: 11 mm
- Inhibition Zones [2]: 11 mm
- Inhibition Zones [3]: 8 mm
- Inhibition Zones [4]: 15 mm
- Inhibition Zones [5]: 12 mm
- Inhibition Zones [6]: 8 mm
- Inhibition Zones (Aspergillus flavus): 13 mm
- Inhibition Zones [7]: 10 mm
- Inhibition Zones (Penicillium chrysogenum): 15 mm
- Inhibition Zones (Rhizopus sp.): 11 mm
- Inhibition Zones [8]: 11 mm
- Inhibition Zones [9]: 8 mm
- IC50 at 72 h (MTT cell viability assay [10]; [13]): 55.2 ± 4.7 µM
- IC50 at 72 h (MTT cell viability assay [10]; [14]): 60.7 ± 5.3 µM
- IC50 at 72 h (MTT cell viability assay [10]; [15]): 94.9 ± 5 µM
- Inhibition Zones [11]: 8 mm
- IC50 at 72 h (MTT cell viability assay [12]): > 200 µM

Compound: CC(=O)Nc1ccccc1C(=O)NCCc1cccc(Cl)c1 [Compound 4a, 2-acetamido-N-(3-chlorophenethyl)benzamide]
- Inhibition Zones [1]: 9 mm
- Inhibition Zones [2]: 10 mm
- Inhibition Zones [3]: 8 mm
- Inhibition Zones [4]: 10 mm
- Inhibition Zones [5]: 8 mm
- Inhibition Zones [6]: 12 mm
- Inhibition Zones (Aspergillus flavus): 8 mm
- Inhibition Zones [7]: 9 mm
- Inhibition Zones (Penicillium chrysogenum): 13 mm
- Inhibition Zones (Rhizopus sp.): 8 mm
- Inhibition Zones [8]: 8 mm
- Inhibition Zones [9]: 8 mm
- IC50 at 72 h (MTT cell viability assay [10]; [13]): > 200 µM
- IC50 at 72 h (MTT cell viability assay [10]; [14]): 112 ± 9.4 µM
- IC50 at 72 h (MTT cell viability assay [10]; [15]): > 200 µM
- Inhibition Zones [11]: 12 mm
- IC50 at 72 h (MTT cell viability assay [12]): > 200 µM

Compound: Nc1ccccc1C(=O)NCCc1cccc(Cl)c1 [Compound 3, 2-amino-N-(3-chlorophenethyl)benzamide]
- Inhibition Zones [1]: 13 mm
- Inhibition Zones [2]: 20 mm
- Inhibition Zones [3]: 8 mm
- Inhibition Zones [4]: 19 mm
- Inhibition Zones [5]: 12 mm
- Inhibition Zones [6]: 12 mm
- Inhibition Zones (Aspergillus flavus): 20 mm
- Inhibition Zones [7]: 14 mm
- Inhibition Zones (Penicillium chrysogenum): 20 mm
- Inhibition Zones (Rhizopus sp.): 20 mm
- Inhibition Zones [8]: 12 mm
- Inhibition Zones [9]: 12 mm
- IC50 at 72 h (MTT cell viability assay [10]; [13]): 154 ± 11.1 µM
- IC50 at 72 h (MTT cell viability assay [10]; [14]): 115 ± 10.5 µM
- IC50 at 72 h (MTT cell viability assay [10]; [15]): 137 ± 12.5 µM
- Inhibition Zones [11]: 12 mm
- IC50 at 72 h (MTT cell viability assay [12]): > 200 µM
